Source: ChEMBL document CHEMBL5550163, “A novel approach to exploit Small-Molecule glucagon-like Peptide-1 receptor agonists with high potency” (Bioorg Med Chem, 2024)
pEC50: −log10 of the molar value. The source made the active and inactive calls. No cut-off for these calls is given here.

How the values were obtained:
[1] = biological target: T1, Glucagon-like peptide 1 receptor (Homo sapiens, UniProt P43220); assay: Agonist activity human GLP-1R stably expressed in HEK293 cells assessed as increase in intracellular cAMP level incubated for 30 mins by multiplate reader analysis; assay type: functional, cell-based
[2] = biological target: T1, Glucagon-like peptide 1 receptor; assay: Agonist activity at GLP-1R (unknown origin) transfected in HEK293 cells assessed as beta-arrestin1 recruitment incubated for 5 mins by Envision multiplate reader analysis; assay type: functional, cell-based
[3] = biological target: T1, Glucagon-like peptide 1 receptor; assay: Agonist activity at GLP-1R (unknown origin) transfected in HEK293 cells assessed as beta-arrestin2 recruitment incubated for 5 mins by Envision multiplate reader analysis; assay type: functional, cell-based
[4] = biological target: Glucagon receptor (Homo sapiens) (UniProt P47871); assay: Agonist activity human GCGR stably expressed in HEK293 cells assessed as […] in intracellular cAMP level up to 100 uM incubated for 30 mins by multiplate reader analysis; assay type: functional, cell-based
Mus musculus [5] = assay: Antidiabetic activity in hGLP1R-knock in mouse model assessed as reduction in blood glucose level at 3 mg/kg, ip pretreated with compound for 15 mins followed glucose addition and measured after 120 mins by OGTT analysis; assay type: functional, organism-based; conditions: time 135.0 min
Mus musculus [6] = assay: Antidiabetic activity in hGLP1R-knock in mouse model assessed as reduction in blood glucose AUC (0 to 120 mins) at 3 mg/kg, ip pretreated with compound for 15 mins followed glucose addition and measured after 120 mins by OGTT analysis; assay type: functional; parameters: scale not given: the % may be the effect or the level left; conditions: time 135 min, 2.25 h
[7] = biological target: T2, Gastric inhibitory polypeptide receptor (Homo sapiens) (UniProt P48546); assay: Agonist activity human GIPR stably expressed in HEK293 cells assessed as […] in intracellular cAMP level up to 100 uM incubated for 30 mins by multiplate reader analysis; assay type: functional, cell-based
T2 sequence (whole entry): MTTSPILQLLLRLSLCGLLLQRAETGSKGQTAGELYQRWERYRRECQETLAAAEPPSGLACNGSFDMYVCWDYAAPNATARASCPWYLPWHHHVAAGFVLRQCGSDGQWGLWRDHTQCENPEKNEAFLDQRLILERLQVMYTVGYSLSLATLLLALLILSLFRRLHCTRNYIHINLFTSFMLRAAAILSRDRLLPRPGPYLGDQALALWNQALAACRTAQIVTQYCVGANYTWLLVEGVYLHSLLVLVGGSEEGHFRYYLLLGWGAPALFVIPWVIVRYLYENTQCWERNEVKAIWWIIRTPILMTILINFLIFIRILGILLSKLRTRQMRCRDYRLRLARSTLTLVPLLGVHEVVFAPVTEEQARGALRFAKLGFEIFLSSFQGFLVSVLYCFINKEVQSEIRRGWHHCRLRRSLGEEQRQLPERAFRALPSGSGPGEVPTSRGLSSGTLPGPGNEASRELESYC

Pancreatic islet = assay: Induction of insulin secretion in mouse Pancreatic islet cells expressing hGLP1R at 10 nM measured for 2 hrs by HTRF analysis; assay type: functional, cell-based
[8] = biological target: T3, Glucagon-like peptide 2 receptor (Homo sapiens) (UniProt O95838); assay: Agonist activity human GLP-2R stably expressed in HEK293 cells assessed as […] in intracellular cAMP level up to 100 uM incubated for 30 mins by multiplate reader analysis; assay type: functional, cell-based
T3 sequence (whole entry): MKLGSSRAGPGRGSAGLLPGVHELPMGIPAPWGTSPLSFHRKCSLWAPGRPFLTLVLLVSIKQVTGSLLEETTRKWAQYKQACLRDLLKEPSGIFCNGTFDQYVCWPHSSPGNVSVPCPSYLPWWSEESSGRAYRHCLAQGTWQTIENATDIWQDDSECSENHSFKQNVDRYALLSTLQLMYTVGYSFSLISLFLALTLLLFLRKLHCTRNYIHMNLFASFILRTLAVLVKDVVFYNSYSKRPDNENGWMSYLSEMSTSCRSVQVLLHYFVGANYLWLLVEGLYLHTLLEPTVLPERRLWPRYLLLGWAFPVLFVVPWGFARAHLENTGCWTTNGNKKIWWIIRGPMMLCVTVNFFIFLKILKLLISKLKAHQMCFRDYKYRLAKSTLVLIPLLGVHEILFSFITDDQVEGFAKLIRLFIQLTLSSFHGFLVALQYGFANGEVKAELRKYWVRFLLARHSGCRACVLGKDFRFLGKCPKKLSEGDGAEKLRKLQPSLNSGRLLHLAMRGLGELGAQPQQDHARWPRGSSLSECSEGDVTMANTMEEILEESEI

Mus musculus [9] = assay: Antidiabetic activity in hGLP1R-knock in mouse model assessed as reduction in blood glucose level at 3 mg/kg, ip pretreated with compound for 15 mins followed glucose addition and measured after 30 to 120 mins by OGTT analysis; assay type: functional, organism-based; conditions: time 45-135 min

T1 sequence (P43220 whole entry): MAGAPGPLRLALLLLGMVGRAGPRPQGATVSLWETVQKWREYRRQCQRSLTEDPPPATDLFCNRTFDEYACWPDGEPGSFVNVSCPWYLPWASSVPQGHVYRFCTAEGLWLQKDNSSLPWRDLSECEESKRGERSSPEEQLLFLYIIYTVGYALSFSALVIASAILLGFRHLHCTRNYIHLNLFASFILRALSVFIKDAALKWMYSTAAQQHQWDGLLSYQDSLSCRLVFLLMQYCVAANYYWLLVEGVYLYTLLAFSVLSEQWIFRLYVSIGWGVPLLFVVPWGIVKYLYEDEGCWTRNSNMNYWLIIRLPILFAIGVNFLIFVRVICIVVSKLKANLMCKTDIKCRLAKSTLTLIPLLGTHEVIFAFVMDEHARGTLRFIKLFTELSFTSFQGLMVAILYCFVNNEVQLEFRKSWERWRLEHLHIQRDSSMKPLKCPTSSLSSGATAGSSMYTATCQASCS
Glucagon receptor (Homo sapiens), sequence (P47871 whole entry): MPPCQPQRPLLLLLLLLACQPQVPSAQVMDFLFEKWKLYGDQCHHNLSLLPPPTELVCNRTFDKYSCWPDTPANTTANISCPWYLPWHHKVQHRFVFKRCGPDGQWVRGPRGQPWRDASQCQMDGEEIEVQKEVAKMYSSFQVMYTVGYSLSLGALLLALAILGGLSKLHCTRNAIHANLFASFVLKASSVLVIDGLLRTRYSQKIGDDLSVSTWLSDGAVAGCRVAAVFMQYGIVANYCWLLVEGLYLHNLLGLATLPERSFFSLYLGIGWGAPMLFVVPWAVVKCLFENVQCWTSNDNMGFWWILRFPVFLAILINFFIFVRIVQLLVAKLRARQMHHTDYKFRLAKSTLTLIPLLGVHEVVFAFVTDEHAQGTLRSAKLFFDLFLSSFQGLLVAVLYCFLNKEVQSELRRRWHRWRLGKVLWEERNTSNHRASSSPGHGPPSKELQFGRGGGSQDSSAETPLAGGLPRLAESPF

SMILES | pEC50 [1] | also measured
CC(=O)CSc1nnc(-c2ccc3c(c2)nc(CN2CCC(c4cccc(OCc5ccc(Cl)cc5F)n4)CC2)n3C[C@@H]2CCO2)[nH]1 | 9.18 | –
CN(C)c1nnc(-c2ccc3c(c2)nc(CN2CCC(c4cccc(OCc5ccc(Cl)cc5F)n4)CC2)n3C[C@@H]2CCO2)[nH]1 | 8.17 | –
NC(=O)CCCCSc1nnc(-c2ccc3c(c2)nc(CN2CCC(c4cccc(OCc5ccc(Cl)cc5F)n4)CC2)n3C[C@@H]2CCO2)[nH]1 | 9.21 | –
CSc1nnc(-c2ccc3c(c2)nc(CN2CCC(c4cccc(OCc5ccc(Cl)cc5F)n4)CC2)n3C[C@@H]2CCO2)n1C | 8.07 | –
N#Cc1ccc(COc2cccc(C3CCN(Cc4nc5ccc(C(=O)O)cc5n4C[C@@H]4CCO4)CC3)n2)c(F)c1 | – | Activity (Mus musculus [5]): Active; Activity (Pancreatic islet): Active; Activity (Mus musculus [9]): Active
NC(=O)CCCSc1nnc(-c2ccc3c(c2)nc(CN2CCC(c4cccc(OCc5ccc(Cl)cc5F)n4)CC2)n3C[C@@H]2CCO2)[nH]1 | 10.00 | pEC50 [2]: 6.25; pEC50 [3]: 6.49
N=C(CSc1nnc(-c2ccc3c(c2)nc(CN2CCC(c4cccc(OCc5ccc(Cl)cc5F)n4)CC2)n3C[C@@H]2CCO2)[nH]1)NO | 9.28 | –
N#CCSc1nnc(-c2ccc3c(c2)nc(CN2CCC(c4cccc(OCc5ccc(Cl)cc5F)n4)CC2)n3C[C@@H]2CCO2)[nH]1 | 9.17 | –
Fc1cc(Cl)ccc1COc1cccc(C2CCN(Cc3nc4cc(-c5nnc(C(F)(F)F)[nH]5)ccc4n3C[C@@H]3CCO3)CC2)n1 | 9.34 | –
COCCSc1nnc(-c2ccc3c(c2)nc(CN2CCC(c4cccc(OCc5ccc(Cl)cc5F)n4)CC2)n3C[C@@H]2CCO2)[nH]1 | 8.47 | –
OCCCSc1nnc(-c2ccc3c(c2)nc(CN2CCC(c4cccc(OCc5ccc(Cl)cc5F)n4)CC2)n3C[C@@H]2CCO2)[nH]1 | 9.32 | –
NC(=O)CSc1nnc(-c2ccc3c(c2)nc(CN2CCC(c4cccc(OCc5ccc(Cl)cc5F)n4)CC2)n3C[C@@H]2CCO2)[nH]1 | 9.46 | –
N=C(N)CSc1nnc(-c2ccc3c(c2)nc(CN2CCC(c4cccc(OCc5ccc(Cl)cc5F)n4)CC2)n3C[C@@H]2CCO2)[nH]1 | 8.55 | –
O=C(O)CSc1nnc(-c2ccc3c(c2)nc(CN2CCC(c4cccc(OCc5ccc(Cl)cc5F)n4)CC2)n3C[C@@H]2CCO2)[nH]1 | 9.00 | –

The remaining molecules from weak to strong by pEC50 [1], led by results:

pEC50 [1] | SMILES | also measured
7.30 | Fc1cc(Cl)ccc1COc1cccc(C2CCN(Cc3nc4cc(-c5nnc(SCC6CC6)[nH]5)ccc4n3C[C@@H]3CCO3)CC2)n1 | –
7.66 | CC(C)CSc1nnc(-c2ccc3c(c2)nc(CN2CCC(c4cccc(OCc5ccc(Cl)cc5F)n4)CC2)n3C[C@@H]2CCO2)[nH]1 | –
8.28 | CC(C)Sc1nnc(-c2ccc3c(c2)nc(CN2CCC(c4cccc(OCc5ccc(Cl)cc5F)n4)CC2)n3C[C@@H]2CCO2)[nH]1 | –
8.40 | OCCCCSc1nnc(-c2ccc3c(c2)nc(CN2CCC(c4cccc(OCc5ccc(Cl)cc5F)n4)CC2)n3C[C@@H]2CCO2)[nH]1 | –
8.60 | Fc1cc(Cl)ccc1COc1cccc(C2CCN(Cc3nc4cc(-c5nnc(SCc6ncc[nH]6)[nH]5)ccc4n3C[C@@H]3CCO3)CC2)n1 | –
8.96 | CCSc1nnc(-c2ccc3c(c2)nc(CN2CCC(c4cccc(OCc5ccc(Cl)cc5F)n4)CC2)n3C[C@@H]2CCO2)[nH]1 | –
9.06 | COc1nnc(-c2ccc3c(c2)nc(CN2CCC(c4cccc(OCc5ccc(Cl)cc5F)n4)CC2)n3C[C@@H]2CCO2)[nH]1 | –
9.12 | CCc1nnc(-c2ccc3c(c2)nc(CN2CCC(c4cccc(OCc5ccc(Cl)cc5F)n4)CC2)n3C[C@@H]2CCO2)[nH]1 | –
9.17 | CSc1nnc(-c2ccc3c(c2)nc(CN2CCC(c4cccc(OCc5ccc(Cl)cc5F)n4)CC2)n3C[C@@H]2CCO2)[nH]1 | –
9.23 | NC(=O)CCSc1nnc(-c2ccc3c(c2)nc(CN2CCC(c4cccc(OCc5ccc(Cl)cc5F)n4)CC2)n3C[C@@H]2CCO2)[nH]1 | –
9.38 | NCCSc1nnc(-c2ccc3c(c2)nc(CN2CCC(c4cccc(OCc5ccc(Cl)cc5F)n4)CC2)n3C[C@@H]2CCO2)[nH]1 | –
9.42 | O=C1NCC(CSc2nnc(-c3ccc4c(c3)nc(CN3CCC(c5cccc(OCc6ccc(Cl)cc6F)n5)CC3)n4C[C@@H]3CCO3)[nH]2)O1 (stereo partly drawn) | –
9.96 | NC(=O)NCCSc1nnc(-c2ccc3c(c2)nc(CN2CCC(c4cccc(OCc5ccc(Cl)cc5F)n4)CC2)n3C[C@@H]2CCO2)[nH]1 | pEC50 [2]: 6.44; pEC50 [3]: 6.46
10.19 | OCCSc1nnc(-c2ccc3c(c2)nc(CN2CCC(c4cccc(OCc5ccc(Cl)cc5F)n4)CC2)n3C[C@@H]2CCO2)[nH]1 | Activity [4]: inactive; Activity (Mus musculus [5]): Active; Activity (Mus musculus [6]): 50%; Activity [7]: inactive; Activity (Pancreatic islet): Active; pEC50 [2]: 6.03; Activity [8]: inactive; Activity (Mus musculus [9]): Active; pEC50 [3]: 6.24
